Assay results reported in US7495027B2, “3-aryl-4-hydroxyfuranone compounds and the human and animal health use thereof” (Wyeth, priority 2003, dated 2009).
Converted amounts (≈) assume the structure as drawn. Like-named read-outs stand apart in the source and are kept apart here.

Columns and labels:
enterococci = assay: Minimum inhibitory concentration, microdilution broth method, enterococci; assay type: cell-based; conditions: Mueller-Hinton broth, 18-22 hours at 35° C.; for MIC: Enterococcus faecalis
In short: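 Strep: Mueller-Hinton + 5% horse blood (LHB). Enterococci, staph: Mueller-Hinton broth alone. Microdilution format per NCCLS M7-A5 2000; isolates include resistant clinical strains.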

[1] = target: E. coli Uridine-diphosphate-N-acetvimuramoyl: L-alanine lipase, MurC (Escherichia coli, UniProt P17952); assay: Inhibitory activity against MurC (E. coli); assay type: biochemical
[2] = target: E. coli Enopyruvyl-UPD-N-acetylglucosamine reductase, Mur B (Escherichia coli, UniProt P08373); assay: biochemical; conditions: (E) E. coli enzyme; for IC50: read-out: MurB IC50 (converted)
[3] = target: T1, S. aureus Enopyruvyl-UPD-N-acetylglucosamine reductase, Mur B (Staphylococcus aureus, UniProt P61431); assay: biochemical; conditions: (S) S. aureus enzyme; for IC50: read-out: MurB IC50 (converted)
T1 sequence (P61431 1-307): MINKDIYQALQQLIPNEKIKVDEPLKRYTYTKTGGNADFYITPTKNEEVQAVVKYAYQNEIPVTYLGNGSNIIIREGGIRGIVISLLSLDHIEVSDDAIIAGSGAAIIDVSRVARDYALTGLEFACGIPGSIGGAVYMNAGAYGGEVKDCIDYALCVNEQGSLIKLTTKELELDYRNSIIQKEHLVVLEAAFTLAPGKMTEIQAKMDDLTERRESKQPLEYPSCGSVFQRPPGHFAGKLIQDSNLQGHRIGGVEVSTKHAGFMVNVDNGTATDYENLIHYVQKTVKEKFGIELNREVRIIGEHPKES

[4] = E. faecalis GC 2242, read-out: MIC E. faecalis GC 2242
[5] = E. faecalis GC 4555, read-out: MIC E. faecalis GC 4555
[6] = (E) E. coli enzyme, read-out: MurC IC50 (converted)

E. coli Enopyruvyl-UPD-N-acetylglucosamine reductase, Mur B, sequence (P08373 whole entry): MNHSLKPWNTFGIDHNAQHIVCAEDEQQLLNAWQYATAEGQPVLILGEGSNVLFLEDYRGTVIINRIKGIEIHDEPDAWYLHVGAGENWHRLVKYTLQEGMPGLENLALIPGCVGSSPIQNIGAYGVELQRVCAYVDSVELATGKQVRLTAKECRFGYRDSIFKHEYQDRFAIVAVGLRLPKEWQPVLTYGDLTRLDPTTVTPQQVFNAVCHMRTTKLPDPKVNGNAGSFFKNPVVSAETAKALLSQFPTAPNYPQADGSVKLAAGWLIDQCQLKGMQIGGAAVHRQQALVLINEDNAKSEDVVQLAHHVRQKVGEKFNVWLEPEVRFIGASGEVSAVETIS
E. coli Uridine-diphosphate-N-acetvimuramoyl: L-alanine lipase, MurC, sequence (P17952 whole entry): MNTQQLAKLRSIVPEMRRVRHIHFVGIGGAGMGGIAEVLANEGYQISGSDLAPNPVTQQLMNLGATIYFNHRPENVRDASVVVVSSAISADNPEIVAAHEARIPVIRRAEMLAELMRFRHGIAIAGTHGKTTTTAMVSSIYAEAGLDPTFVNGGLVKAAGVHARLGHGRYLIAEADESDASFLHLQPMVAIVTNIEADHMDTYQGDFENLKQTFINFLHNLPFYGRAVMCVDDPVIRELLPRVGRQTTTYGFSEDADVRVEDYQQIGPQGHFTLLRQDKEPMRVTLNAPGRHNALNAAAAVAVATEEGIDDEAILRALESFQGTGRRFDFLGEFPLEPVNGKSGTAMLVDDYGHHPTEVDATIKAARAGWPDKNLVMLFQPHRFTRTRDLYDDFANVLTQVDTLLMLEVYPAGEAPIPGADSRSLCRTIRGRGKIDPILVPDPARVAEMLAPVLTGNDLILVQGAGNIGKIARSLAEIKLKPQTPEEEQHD

Compound	MIC (enterococci; [4]) [µg/mL]	MIC (enterococci; [5]) [µg/mL]	IC50 [2] [µM]	IC50 [3] [µM]	also measured
O=C1O/C(=C\c2ccc(-c3cccc(C(F)(F)F)c3)cc2)C(O)=C1c1cccc(C(F)(F)F)c1					MIC E. faecalis GC 2242 (enterococci; E. faecalis GC 2242): 1 µg/mL (≈ 2.1 µM); MIC E. faecalis GC 4555 (enterococci; E. faecalis GC 4555): 4 µg/mL (≈ 8.4 µM); MurC IC50 ([1]; (E) E. coli enzyme): 11 µg/mL; MurB IC50 [2]: 4 (E) μg/mL
O=C1O/C(=C\c2ccc(-c3cc(Cl)cc(Cl)c3)cc2)C(O)=C1c1cc(Cl)cc(Cl)c1	0.5 (≈ 1.05 µM)	1 (≈ 2.09 µM)			MurC IC50 ([1]; (E) E. coli enzyme): 17 µg/mL; MurB IC50 [2]: 3 (E) μg/mL
O=C1OC(=Cc2ccc(-c3ccccc3)cc2)C(O)=C1c1cccc(C(F)(F)F)c1 (mixture of isomers) [Example 11]					MIC E. faecalis GC 2242 (enterococci; E. faecalis GC 2242): 1 µg/mL; MIC E. faecalis GC 4555 (enterococci; E. faecalis GC 4555): 8 µg/mL; MurC IC50 ([1]; (E) E. coli enzyme): 4 µg/mL; MurB IC50 [2]: 6 (E) μg/mL
Cc1ccc(C=C2OC(=O)C(c3ccc(Cl)cc3)=C2O)s1 (mixture of isomers) [Example 13]					MIC E. faecalis GC 2242 (enterococci; E. faecalis GC 2242): >128 µg/mL; MIC E. faecalis GC 4555 (enterococci; E. faecalis GC 4555): >128 µg/mL; MurC IC50 ([1]; (E) E. coli enzyme): 4 µg/mL; MurB IC50 [2]: 12 (E) μg/mL
O=C1O/C(=C\c2ccc(-c3ccccc3)cc2)C(O)=C1c1cccc(C(F)(F)F)c1 [Example 10]	1 (≈ 2.45 µM)	8 (≈ 19.6 µM)	14.7		IC50 [1, 6]: 9.79 µM
Cc1ccc(C=C2OC(=O)C(c3ccc(Cl)cc3)=C2O)s1 [Example 14]					MIC E. faecalis GC 2242 (enterococci; E. faecalis GC 2242): 64 µg/mL (≈ 201 µM); MIC E. faecalis GC 4555 (enterococci; E. faecalis GC 4555): 4 µg/mL (≈ 12.5 µM); MurC IC50 ([1]; (E) E. coli enzyme): 13 µg/mL; MurB IC50 [2]: >25 (E) μg/mL
O=C1O/C(=C\C2CCCCC2)C(O)=C1c1ccc(Cl)cc1 [Example 15]	32 (≈ 105 µM)	64 (≈ 210 µM)	> 82		IC50 [1, 6]: 55.8 µM
O=C1OC(=CC2CCCCC2)C(O)=C1c1cccc(C(F)(F)F)c1 [Example 16]					MIC E. faecalis GC 2242 (enterococci; E. faecalis GC 2242): 64 µg/mL (≈ 189 µM); MIC E. faecalis GC 4555 (enterococci; E. faecalis GC 4555): 64 µg/mL (≈ 189 µM); MurC IC50 ([1]; (E) E. coli enzyme): 7 µg/mL; MurB IC50 [2]: >25 (E) μg/mL
O=C1O/C(=C\C2CCCCC2)C(O)=C1c1cccc(C(F)(F)F)c1 [Example 17]	32 (≈ 94.6 µM)	64 (≈ 189 µM)	> 70.9		MurC IC50 ([1]; (E) E. coli enzyme): 10 µg/mL
COc1cc(/C=C2\OC(=O)C(c3cccc(Cl)c3)=C2O)ccc1-c1ccccc1Cl [Example 18]	8 (≈ 18.2 µM)	16 (≈ 36.4 µM)	13.7	11.4	
COc1cc(/C=C2\OC(=O)C(c3cc(Cl)cc(Cl)c3)=C2O)ccc1-c1ccccc1Cl [Example 21]	2 (≈ 4.22 µM)	4 (≈ 8.44 µM)	10.6	6.33	
COc1cc(/C=C2\OC(=O)C(c3cccc(Cl)c3)=C2O)ccc1-c1ccccc1C [Example 22]	8 (≈ 19.1 µM)	16 (≈ 38.2 µM)	14.3	14.3	
COc1ccccc1-c1ccc(/C=C2\OC(=O)C(c3cccc(Cl)c3)=C2O)cc1C [Example 23]	8 (≈ 19.1 µM)	8 (≈ 19.1 µM)	9.55	11.9	
COc1ccccc1-c1ccc(/C=C2\OC(=O)C(c3cc(Cl)cc(Cl)c3)=C2O)cc1C [Example 24]	4 (≈ 8.82 µM)	4 (≈ 8.82 µM)	8.82	4.41	
COc1cc(/C=C2\OC(=O)C(c3cc(Cl)cc(Cl)c3)=C2O)ccc1-c1ccccc1C [Example 25]	2 (≈ 4.41 µM)	4 (≈ 8.82 µM)	4.41	4.41	
Cc1cc(/C=C2\OC(=O)C(c3cccc(Cl)c3)=C2O)ccc1-c1ccccc1C(F)(F)F [Example 26]	2 (≈ 4.38 µM)	4 (≈ 8.76 µM)	6.57	4.38	
Cc1cc(/C=C2\OC(=O)C(c3cc(Cl)cc(Cl)c3)=C2O)ccc1-c1ccccc1C(F)(F)F [Example 27]	1 (≈ 2.04 µM)	2 (≈ 4.07 µM)	6.11	4.07	
Cc1ccccc1-c1ccc(/C=C2\OC(=O)C(c3cccc(Cl)c3)=C2O)cc1C [Example 28]	2 (≈ 4.96 µM)	4 (≈ 9.93 µM)	7.45	7.45	
Cc1ccccc1-c1ccc(/C=C2\OC(=O)C(c3cc(Cl)cc(Cl)c3)=C2O)cc1C [Example 29]	0.5 (≈ 1.14 µM)	2 (≈ 4.57 µM)	4.57	4.57	
Cc1cc(/C=C2\OC(=O)C(c3cccc(Cl)c3)=C2O)ccc1-c1ccccc1Cl [Example 30]	4 (≈ 9.45 µM)	4 (≈ 9.45 µM)	4.72	4.72	
Cc1cc(C=C2OC(=O)C(c3cc(Cl)cc(Cl)c3)=C2O)ccc1-c1ccccc1Cl [Example 31]					MIC E. faecalis GC 2242 (enterococci; E. faecalis GC 2242): 1 µg/mL (≈ 2.18 µM); MIC E. faecalis GC 4555 (enterococci; E. faecalis GC 4555): 2 µg/mL (≈ 4.37 µM); MurB IC50 [3]: 2 (E); 2 (S) μg/mL; MurB IC50 [2]: 2 (E); 2 (S) μg/mL

Compound	MIC (enterococci; [4]) [µg/mL]	MIC (enterococci; [5]) [µg/mL]	IC50 [2] [µM]	IC50 [3] [µM]	also measured
COc1cc(/C=C2\OC(=O)C(c3cccc(Cl)c3)=C2O)ccc1-c1ccccc1C(F)(F)F [Example 32]	4 (≈ 8.46 µM)	8 (≈ 16.9 µM)	12.7	6.34	
COc1cc(/C=C2\OC(=O)C(c3cc(Cl)cc(Cl)c3)=C2O)ccc1-c1ccccc1C(F)(F)F [Example 33]	1 (≈ 1.97 µM)	2 (≈ 3.94 µM)	3.94	3.94	
O=C1O/C(=C\c2ccc(N3CCOCC3)c(F)c2)C(O)=C1c1cc(Cl)cc(Cl)c1 [Example 34]					MIC E. faecalis GC 2242 (enterococci; E. faecalis GC 2242): 64 µg/mL (≈ 147 µM); MIC E. faecalis GC 4555 (enterococci; E. faecalis GC 4555): 64 µg/mL (≈ 147 µM); MurB IC50 [3]: 6 (S) μg/mL
COc1ccc(C=C2OC(=O)C(c3cccc(Cl)c3)=C2O)c2ccccc12 [Example 35]					MIC E. faecalis GC 2242 (enterococci; E. faecalis GC 2242): 8 µg/mL (≈ 21.1 µM); MIC E. faecalis GC 4555 (enterococci; E. faecalis GC 4555): 16 µg/mL (≈ 42.2 µM); MurB IC50 [3]: 6 (S) μg/mL
COc1ccc(/C=C2\OC(=O)C(c3cc(Cl)cc(Cl)c3)=C2O)c2ccccc12 [Example 36]	4 (≈ 9.68 µM)	8 (≈ 19.4 µM)		7.26	
O=C1O/C(=C\c2ccc(N3CCOCC3)c3ccccc23)C(O)=C1c1cccc(Cl)c1 [Example 37]	16 (≈ 36.9 µM)	32 (≈ 73.8 µM)		23	
O=C1O/C(=C\c2ccc(N3CCOCC3)c3ccccc23)C(O)=C1c1cc(Cl)cc(Cl)c1 [Example 38]	16 (≈ 34.2 µM)	32 (≈ 68.3 µM)		17.1	
O=C1O/C(=C\c2cccc(C(F)(F)F)c2)C(O)=C1c1ccc2ccccc2c1 [Example 42]	8 (≈ 20.9 µM)	32 (≈ 83.7 µM)			MurC IC50 ([1]; (E) E. coli enzyme): 6 µg/mL; MurB IC50 [2]: 10 (E) μg/mL
O=C1O/C(=C\C2CCCCC2)C(O)=C1c1ccc2ccccc2c1 [Example 51]	8 (≈ 25 µM)	32 (≈ 99.9 µM)	> 78		MurC IC50 ([1]; (E) E. coli enzyme): 9 µg/mL
O=C1O/C(=C\c2ccc3ccccc3c2)C(O)=C1c1ccc2ccccc2c1 [Example 52]	4 (≈ 11 µM)	8 (≈ 22 µM)	> 68.6		IC50 [1, 6]: 46.7 µM
O=C1O/C(=C\c2ccc(-c3ccccc3)cc2)C(O)=C1c1ccc(Cl)cc1 [Example 53]	4 (≈ 10.7 µM)	8 (≈ 21.3 µM)	16		IC50 [1, 6]: 13.3 µM
O=C1O/C(=C\c2ccc3ccccc3c2)C(O)=C1c1ccc(Cl)cc1 [Example 54]	4 (≈ 11.5 µM)	32 (≈ 91.7 µM)	22.9		IC50 [1, 6]: 14.3 µM
O=C1O/C(=C\c2ccc3ccccc3c2)C(O)=C1c1cccc2ccccc12 [Example 56]	8 (≈ 22 µM)	32 (≈ 87.8 µM)	> 68.6		IC50 [1, 6]: 13.7 µM
O=C1O/C(=C\c2ccc(-c3ccccc3)cc2)C(O)=C1c1cc(Cl)cc(Cl)c1 [Example 67]	0.5 (≈ 1.22 µM)	2 (≈ 4.89 µM)	2.44		IC50 [1, 6]: 14.7 µM
O=C1O/C(=C\c2ccc(-c3ccccc3)cc2)C(O)=C1c1cccc(Cl)c1 [Example 69]	0.5 (≈ 1.33 µM)	0.5 (≈ 1.33 µM)	13.3		
O=C1O/C(=C\C2CCCCC2)C(O)=C1c1ccc(-c2ccccc2)cc1 [Example 100]	> 128	> 128			IC50 [1, 6]: 37.5 µM
O=C1O/C(=C\c2cccnc2)C(O)=C1c1ccc(-c2ccccc2)cc1 [Example 101]	64 (≈ 187 µM)	> 128	> 73.2		IC50 [1, 6]: 52.7 µM
Cc1ccc(/C=C2\OC(=O)C(c3ccc(-c4ccccc4)cc3)=C2O)s1 [Example 104]	32 (≈ 88.8 µM)	64 (≈ 178 µM)			IC50 [1, 6]: 13.9 µM
O=C1O/C(=C\c2cccc(C(F)(F)F)c2)C(O)=C1c1ccc(-c2ccccc2)c(F)c1 [Example 106]	0.25 (≈ 0.586 µM)	1 (≈ 2.35 µM)			IC50 [1, 6]: 21.1 µM; MurB IC50 [2]: 12 (E) μg/mL
O=C1O/C(=C\c2ccc(C(F)(F)F)cc2)C(O)=C1c1ccc(-c2ccccc2)cc1 [R=H, R1=4-(biphenyl), R2=4-CF3—C6H4]	2 (≈ 4.9 µM)	8 (≈ 19.6 µM)	14.7		IC50 ([1]; MurC IC50, (E) E. coli enzyme): 12.2 µM
O=C1O/C(=C\c2ccc(-c3ccc(Cl)cc3)cc2)C(O)=C1c1ccc(Cl)cc1 [R=H, R1=4-Cl—C6H4, R2=4-(4′-Cl-biphenyl)]	2 (≈ 4.89 µM)	8 (≈ 19.5 µM)	7.33		IC50 ([1]; MurC IC50, (E) E. coli enzyme): 29.3 µM
